Test results from ChEMBL document CHEMBL1157949, “Kalanchosine dimalate, an anti-inflammatory salt from Kalanchoe brasiliensis” (J Nat Prod, 2006).
Active and inactive are the calls of the source. The calls are words filed in the database; no cut-off is given here.

Test system: Mus musculus
Assay: Antiinflammatory activity against zymosan-induced inflammation in mouse assessed as impairment of increase in popliteal lymph node weight at 240 mg/kg, ip administered daily 2 days before zymosan challenge measured after 5 days
Format: functional, organism-based
Design: dose 240 mg/kg

With `NC(CC(=O)O)C(O)C(O)C(N)CC(=O)O` (stereo unspecified) the Activity was “Active”.
